Measurements reported in US20240279232A1, “USE OF SUBSTITUTED 5-(4-METHYL-6-PHENYL-4H-BENZO[F]IMIDAZO[1,5-A][1,4] DIAZEPIN-3-YL)-1,2,4-O[…] THE TREATMENT OF INFLAMMATORY CONDITIONS” (priority 2021, published 2024).

Legend:
iNOS protein = assay: iNOS ELISA in activated microglia; assay type: cell-based, mouse; conditions: 10 μM, 24 h treatment, vs vehicle
Procedure: (§1) Mouse microglia were activated with IFNγ/LPS and treated with vehicle or 10 μM GL-IV-03. mRNA was isolated after 15 min, 1 h, 3 h and 6 h and iNOS was quantified using RT-qPCR. Cycle numbers for each sample were normalized to GAPDH using the ΔCt method (n=3). Mouse microglia were activated with IFNγ/LPS and treated with vehicle or 10 μM GL-IV-03 for 24 h. Cellular protein was extracted and analyzed with the mouse iNOS ELISA kit from Abcam (n=3). *, (p<0.05), ** (p<0.01) or *** (p<0.001) significance was calculate with ANOVA.
iNOS ELISA. Mouse microglia (2 mL of 500,000 cells/mL cell solution) were activated with 50 ng/mL LPS (Invivogen, NC9836) and 150 U/mL IFNγ (R&D Systems, 485M1100), and treated with compounds of interest in 6 well plates (VWR, 10062-892) for 24 hours. […] Cells were lysed with RIPA buffer and protein concentration quantified with the Pierce Rapid Gold BCA Protein Assay Kit (Thermo Scientific, A53227). Samples at 50 μg/mL were analyzed with the Mouse iNOS ELISA kit (ABCAM, ab253219). Absorbance (λ: 450 nm) was measured using a TECAN Infinite M1000 plate reader. Each measurement was carried with an n=3 and significance analyzed by ANOVA.

iNOS mRNA = assay: iNOS RT-qPCR in activated microglia; assay type: cell-based, mouse; conditions: 10 μM
Procedure: as §1
iNOS RT-qPCR. 1×10^6 mouse microglia cells were plated in 6 well plates (VWR, 10062-892) in 1-2 mL of media, activated with 50 ng/ml LPS (Invivogen, NC9836) and 150 U/mL IFNγ (R&D Systems, 485MI100), and treated with compounds of interest. […] Plates were incubated for stated times at 37° C. and 5% CO2. mRNA was collected using QIAshredder (Qiagen, 79654) and RNeasy Mini Kit (Qiagen, 74104). mRNA was analyzed using the QuantiFast SYBR Green RT-PCR kit (Qiagen, 204154) along with iNOS primers (F. 5′-ACATCAGGTCGGCCATCACT-3′, R: 5′-CGTACCGGATGAGCTGTGAAT-3′). Expected product size was 87 bp. Data were acquired using an Eppendorf Mastercycler Pro and analyzed by the Delta Ct method. Each measurement was carried out in triplicate and significance analyzed by ANOVA. […]

iNOS [1] = target: T1, iNOS (Mus musculus, UniProt P29477); assay: iNOS activity of extracts of activated microglia incubated with compound; assay type: biochemical; conditions: 50 μM, extracts incubated 2 h
T1 construct: endogenous in cells
Procedure: Cellular proteins were isolated from mouse microglia and mouse microglia activated for 24 hours with IFNγ/LPS. Cellular proteins from activated microglia were treated for 2 hours with 50 μM MP-IV-010 and iNOS activity was determined for all protein extracts with an Abcam INOS Activity Assay kit (n=3).
(§2) Next, the possible involvement of INOS in MP-IV-010 (and structurally similar compound GL-IV-03) mediated reduction of NO in activated microglia was investigated. INOS activity was measured in activated microglia after a 24-hour treatment with MP-IV-010. Second, proteins were harvested from microglia activated for 24 hours with LPS/INFγ, followed by a 2-hour treatment with MP-IV-010 before measuring iNOS activity. Finally, mRNA and protein levels were quantified for GL-IV-03 treated activated microglia to examine the transcriptional regulation of iNOS.
(§3) iNOS activity assay. Mouse microglia were activated with 50 ng/mL LPS (Invivogen, NC9836) and 150 U/mL IFNγ (R&D Systems, 485MI100), and treated with compounds of interest in 6 well plates for 2 or 24 hours. […] Protein was collected, quantified, and analyzed with the Nitric Oxide Synthase Activity kit (Abcam, ab211083) with minor alterations to the established protocol. […] Absorbance at 540 nm was measured using a TECAN Infinite M1000 plate reader. Significance (n=3) was analyzed by ANOVA.

iNOS [2] = assay: iNOS activity in activated microglia after compound treatment; assay type: cell-based, mouse; conditions: 50 μM, treatment for 24 h
Procedure: The cellular proteins were isolated from mouse microglia treated with vehicle and mouse microglia activated with IFNγ/LPS and treated for 24 hours with vehicle or 50 μM MP-IV-010. The specific iNOS activity was determined with an Abcam INOS Activity Assay kit (n=4).
as §2, §3

M4 = M4 (Homo sapiens, UniProt P08173); assay: PDSP primary binding M4; conditions: PDSP primary screening
Procedure: (§4) Because reduction of NO could not be reversed by GABAAR antagonists, the possible binding of MP-IV-010 to other cellular receptors was evaluated in collaboration with the NIMH Psychoactive Drug Screening Program.
(§5) Psychoactive Drug Screening Program. Detailed protocols for the primary and secondary radioligand binding assays can be found in the National Institute of Mental Health's Psychoactive Drug Screening Program (NIMH PDSP) Assay Protocol Book. Briefly, primary and secondary radioligand binding assays are carried out in a final of volume of 125 μL per well in appropriate binding buffer. The radioactive ligand concentration is close to the Kd. Total binding and nonspecific binding are determined in the absence and presence of 10 μM of appropriate reference compound, respectively. In brief, plates are usually incubated at room temperature and in the dark for 90 min. Reactions are stopped by vacuum filtration onto 0.3% polyethyleneimine (PEI) soaked 96-well filter mats using a 96-well Filtermate harvester, followed by three washes with cold PBS buffer. Scintillation cocktail is then melted onto the microwave-dried filters on a hot plate and radioactivity counted in a Microbeta counter. The data (n=6) were analyzed by nonlinear regression.

5-HT2B = 5-HT2B (Homo sapiens, UniProt P41595); assay: PDSP primary binding 5-HT2B; conditions: PDSP primary screening
Procedure: as §4, §5

D3 = D3 (Homo sapiens, UniProt P35462); assay: PDSP primary binding D3; conditions: PDSP primary screening
Procedure: as §4, §5

5-HT7 = 5-HT7 (Homo sapiens, UniProt P34969); assay: PDSP primary binding 5-HT7; conditions: PDSP primary screening
Procedure: as §4, §5

5-HT1D = 5-HT1D (Homo sapiens, UniProt P28221); assay: PDSP primary binding 5-HT1D; conditions: PDSP primary screening
Procedure: as §4, §5

D2 = D2 (Homo sapiens, UniProt P14416); assay: PDSP primary binding D2; conditions: PDSP primary screening
Procedure: as §4, §5

DAT = DAT (Homo sapiens, UniProt Q01959); assay: PDSP primary binding DAT; conditions: PDSP primary screening
Procedure: as §4, §5

5-HT3 = 5-HT3 (Homo sapiens, UniProt P46098); assay: PDSP primary binding 5-HT3; conditions: PDSP primary screening
Procedure: as §4, §5

Sequence of D3 (P35462 whole entry): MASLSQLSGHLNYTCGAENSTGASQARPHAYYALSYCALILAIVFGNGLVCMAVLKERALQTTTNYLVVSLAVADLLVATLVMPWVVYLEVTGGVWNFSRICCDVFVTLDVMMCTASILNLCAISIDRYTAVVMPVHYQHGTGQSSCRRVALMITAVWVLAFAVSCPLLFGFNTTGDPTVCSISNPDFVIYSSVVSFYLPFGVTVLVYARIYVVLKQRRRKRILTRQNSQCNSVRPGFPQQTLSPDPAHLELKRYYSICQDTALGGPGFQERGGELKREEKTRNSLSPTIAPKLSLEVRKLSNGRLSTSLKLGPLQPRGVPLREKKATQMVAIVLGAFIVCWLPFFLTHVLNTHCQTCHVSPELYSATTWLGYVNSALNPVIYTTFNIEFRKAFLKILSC
Sequence of 5-HT7 (P34969 whole entry, species assumed): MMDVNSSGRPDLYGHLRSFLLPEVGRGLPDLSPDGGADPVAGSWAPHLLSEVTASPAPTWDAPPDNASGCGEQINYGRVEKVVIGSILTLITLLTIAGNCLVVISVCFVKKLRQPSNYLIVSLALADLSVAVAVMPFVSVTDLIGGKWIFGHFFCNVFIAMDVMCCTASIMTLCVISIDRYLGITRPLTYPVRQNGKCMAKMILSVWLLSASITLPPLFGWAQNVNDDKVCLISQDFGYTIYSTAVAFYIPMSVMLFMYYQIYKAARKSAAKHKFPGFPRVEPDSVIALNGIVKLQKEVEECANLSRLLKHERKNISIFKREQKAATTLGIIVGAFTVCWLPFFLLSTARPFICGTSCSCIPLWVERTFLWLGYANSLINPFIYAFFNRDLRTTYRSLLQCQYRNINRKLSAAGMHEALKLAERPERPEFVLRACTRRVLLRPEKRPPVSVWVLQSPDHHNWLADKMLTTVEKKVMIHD
Sequence of DAT (Q01959 whole entry, species assumed): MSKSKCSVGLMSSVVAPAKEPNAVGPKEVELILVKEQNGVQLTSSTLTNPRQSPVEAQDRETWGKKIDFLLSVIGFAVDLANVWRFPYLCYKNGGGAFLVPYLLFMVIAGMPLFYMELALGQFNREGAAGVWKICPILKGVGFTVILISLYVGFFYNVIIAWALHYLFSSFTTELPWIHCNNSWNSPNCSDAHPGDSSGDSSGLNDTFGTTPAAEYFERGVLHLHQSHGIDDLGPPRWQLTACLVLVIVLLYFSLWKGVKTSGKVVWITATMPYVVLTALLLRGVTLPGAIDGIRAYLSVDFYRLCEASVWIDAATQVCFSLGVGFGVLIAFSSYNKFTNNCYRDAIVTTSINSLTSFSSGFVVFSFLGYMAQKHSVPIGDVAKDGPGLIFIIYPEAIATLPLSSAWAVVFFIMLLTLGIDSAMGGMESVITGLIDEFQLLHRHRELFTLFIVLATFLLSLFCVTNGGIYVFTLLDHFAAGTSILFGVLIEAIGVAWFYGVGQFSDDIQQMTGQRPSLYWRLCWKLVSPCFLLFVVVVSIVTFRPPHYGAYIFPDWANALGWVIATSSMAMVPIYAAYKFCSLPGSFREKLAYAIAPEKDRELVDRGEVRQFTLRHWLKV
Sequence of 5-HT1D (P28221 whole entry, species assumed): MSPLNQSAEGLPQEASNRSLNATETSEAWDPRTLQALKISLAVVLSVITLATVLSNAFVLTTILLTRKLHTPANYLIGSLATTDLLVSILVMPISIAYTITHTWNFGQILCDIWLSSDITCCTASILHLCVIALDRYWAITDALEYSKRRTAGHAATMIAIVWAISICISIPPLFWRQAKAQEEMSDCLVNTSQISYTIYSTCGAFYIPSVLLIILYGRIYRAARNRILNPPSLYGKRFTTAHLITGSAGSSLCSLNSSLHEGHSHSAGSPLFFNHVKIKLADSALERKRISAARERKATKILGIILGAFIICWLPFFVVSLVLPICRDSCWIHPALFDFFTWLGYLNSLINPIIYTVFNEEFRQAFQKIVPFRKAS
Sequence of D2 (P14416 whole entry): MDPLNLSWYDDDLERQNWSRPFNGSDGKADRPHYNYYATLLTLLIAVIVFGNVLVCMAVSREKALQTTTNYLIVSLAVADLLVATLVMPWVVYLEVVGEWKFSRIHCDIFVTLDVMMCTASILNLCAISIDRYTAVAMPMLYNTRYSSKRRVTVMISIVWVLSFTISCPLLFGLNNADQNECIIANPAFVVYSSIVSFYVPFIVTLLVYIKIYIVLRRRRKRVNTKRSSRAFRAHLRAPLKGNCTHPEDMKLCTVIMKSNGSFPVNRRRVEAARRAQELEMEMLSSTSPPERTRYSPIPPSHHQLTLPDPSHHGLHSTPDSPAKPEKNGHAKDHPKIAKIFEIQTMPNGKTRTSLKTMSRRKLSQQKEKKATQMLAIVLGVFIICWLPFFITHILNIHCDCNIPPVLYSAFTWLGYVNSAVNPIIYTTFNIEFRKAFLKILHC
Sequence of 5-HT3 (P46098 24-478, species assumed): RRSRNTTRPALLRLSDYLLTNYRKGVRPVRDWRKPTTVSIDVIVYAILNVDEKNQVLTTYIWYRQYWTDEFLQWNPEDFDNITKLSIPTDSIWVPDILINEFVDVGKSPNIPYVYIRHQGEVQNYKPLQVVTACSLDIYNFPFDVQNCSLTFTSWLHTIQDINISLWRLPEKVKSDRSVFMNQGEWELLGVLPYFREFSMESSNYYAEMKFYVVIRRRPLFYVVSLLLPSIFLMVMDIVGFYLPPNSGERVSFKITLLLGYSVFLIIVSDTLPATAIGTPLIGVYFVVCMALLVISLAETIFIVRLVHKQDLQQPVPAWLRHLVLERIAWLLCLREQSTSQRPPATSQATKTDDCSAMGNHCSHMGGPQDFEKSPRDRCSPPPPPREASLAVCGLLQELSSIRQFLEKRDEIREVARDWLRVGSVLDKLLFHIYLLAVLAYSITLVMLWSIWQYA
Sequence of M4 (P08173 whole entry): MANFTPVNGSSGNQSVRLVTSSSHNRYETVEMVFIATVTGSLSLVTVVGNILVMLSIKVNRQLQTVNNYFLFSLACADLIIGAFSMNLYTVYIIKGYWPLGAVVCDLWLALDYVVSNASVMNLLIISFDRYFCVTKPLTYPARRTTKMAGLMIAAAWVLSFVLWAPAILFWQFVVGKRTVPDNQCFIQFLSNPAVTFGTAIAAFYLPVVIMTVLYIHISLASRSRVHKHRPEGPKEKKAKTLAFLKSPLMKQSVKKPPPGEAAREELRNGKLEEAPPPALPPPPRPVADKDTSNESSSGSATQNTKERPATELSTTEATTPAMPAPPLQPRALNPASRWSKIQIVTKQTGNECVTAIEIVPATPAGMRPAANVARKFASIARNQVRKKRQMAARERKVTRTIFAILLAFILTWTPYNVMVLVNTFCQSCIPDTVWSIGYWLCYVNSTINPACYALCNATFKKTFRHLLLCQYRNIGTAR
Sequence of 5-HT2B (P41595 whole entry, species assumed): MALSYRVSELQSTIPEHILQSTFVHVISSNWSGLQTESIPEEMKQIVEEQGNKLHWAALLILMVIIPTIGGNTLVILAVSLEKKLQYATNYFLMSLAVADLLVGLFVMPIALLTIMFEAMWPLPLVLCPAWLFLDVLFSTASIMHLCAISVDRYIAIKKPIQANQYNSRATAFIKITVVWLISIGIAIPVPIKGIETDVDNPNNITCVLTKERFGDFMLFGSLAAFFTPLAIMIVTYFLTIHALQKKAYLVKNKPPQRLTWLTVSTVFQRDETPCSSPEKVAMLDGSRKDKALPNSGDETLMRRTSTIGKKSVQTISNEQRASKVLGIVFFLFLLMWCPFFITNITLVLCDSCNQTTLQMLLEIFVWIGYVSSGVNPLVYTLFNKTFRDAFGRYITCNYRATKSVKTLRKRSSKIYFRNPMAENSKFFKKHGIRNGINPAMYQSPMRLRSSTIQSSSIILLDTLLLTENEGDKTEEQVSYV
T1 sequence (P29477 whole entry): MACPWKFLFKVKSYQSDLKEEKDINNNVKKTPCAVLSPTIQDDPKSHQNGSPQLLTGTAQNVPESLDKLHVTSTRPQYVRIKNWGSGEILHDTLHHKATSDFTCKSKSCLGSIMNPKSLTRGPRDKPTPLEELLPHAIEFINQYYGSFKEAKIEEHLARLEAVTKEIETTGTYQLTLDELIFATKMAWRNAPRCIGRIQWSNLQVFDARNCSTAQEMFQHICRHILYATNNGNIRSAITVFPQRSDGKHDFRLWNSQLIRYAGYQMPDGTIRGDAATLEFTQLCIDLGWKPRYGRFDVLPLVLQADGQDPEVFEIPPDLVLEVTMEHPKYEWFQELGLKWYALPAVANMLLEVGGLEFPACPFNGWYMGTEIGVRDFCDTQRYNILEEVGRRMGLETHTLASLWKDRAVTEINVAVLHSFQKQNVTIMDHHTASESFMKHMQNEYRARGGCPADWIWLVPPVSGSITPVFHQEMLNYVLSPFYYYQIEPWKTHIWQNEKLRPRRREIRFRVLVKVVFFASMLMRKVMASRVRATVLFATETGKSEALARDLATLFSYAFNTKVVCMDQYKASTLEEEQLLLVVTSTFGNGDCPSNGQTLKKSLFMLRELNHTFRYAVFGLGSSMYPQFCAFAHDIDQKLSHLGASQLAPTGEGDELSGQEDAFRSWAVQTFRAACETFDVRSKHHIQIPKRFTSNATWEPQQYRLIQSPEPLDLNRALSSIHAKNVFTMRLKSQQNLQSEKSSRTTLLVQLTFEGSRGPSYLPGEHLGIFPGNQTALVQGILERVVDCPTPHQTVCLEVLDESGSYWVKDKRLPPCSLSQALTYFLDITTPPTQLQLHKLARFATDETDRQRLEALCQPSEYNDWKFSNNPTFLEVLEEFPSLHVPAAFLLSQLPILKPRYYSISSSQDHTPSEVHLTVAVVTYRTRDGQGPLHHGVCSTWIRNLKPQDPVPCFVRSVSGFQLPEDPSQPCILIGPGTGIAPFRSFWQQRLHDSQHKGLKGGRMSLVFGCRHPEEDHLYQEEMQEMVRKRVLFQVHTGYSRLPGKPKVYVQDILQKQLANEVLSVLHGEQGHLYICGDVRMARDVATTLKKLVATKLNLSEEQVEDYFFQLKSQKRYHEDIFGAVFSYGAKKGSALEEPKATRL

SMILES	amount of iNOS protein (iNOS protein)	iNOS mRNA levels (iNOS mRNA; 15, 60, and 180 minutes)	iNOS mRNA levels (iNOS mRNA; after 6 h)	iNOS activity of cellular extracts (direct inhibition) (iNOS [1])	iNOS activity in activated microglia (iNOS [2])	Percent Competition M4 (M4)	Percent Competition 5-HT2B (5-HT2B)	Percent Competition D3 (D3)	Percent Competition 5-HT7 (5-HT7)	Percent Competition 5-HT1D (5-HT1D)	Percent Competition D2 (D2)	Percent Competition DAT (DAT)	Percent Competition 5-HT3 (5-HT3)
CCc1noc(-c2ncn3c2[C@@H](C)N=C(c2ccccc2F)c2cc(C4CC4)ccc2-3)n1 [GL-IV-03, (R)-5-(8-Cyclopropyl-6-(2-fluorophenyl)-4-methyl-4H-benzo[f]imidazo[1,5-a][1,4]diazepin-3-yl)-3-ethyl-1,2,4-oxadiazole]	significantly lower	reduced	increased	–	–	–	–	–	–	–	–	–	–
C#Cc1ccc2c(c1)C(c1ccccc1F)=N[C@H](C)c1c(-c3nc(C(C)C)no3)ncn1-2 [MP-IV-010, (R)-5-(8-ethynyl-6-(2-fluorophenyl)-4-methyl-4H-benzo[f]imidazo[1,5-a][1,4]diazepin-3-yl)-3-isopropyl-1,2,4-oxadiazole]	–	–	–	did not differ from the vehicle treated cell extract	completely inhibited	8%	0%	15%	−5%	6%	25%	14%	13%
